Reference: ChEMBL document CHEMBL3804814, “Quinazolines and quinazolinones as ubiquitous structural fragments in medicinal chemistry: An update on the development of synthetic methods and pharmacological diversification” (Bioorg Med Chem, 2016)
Each block holds one molecule with its values, some of them ahead of it.

Legend:
HepG2 [1] = experiment: Cytotoxicity against human HepG2 cells measured after 48 hrs by SRB assay; format: functional, cell-based
[2] = Anticancer activity against human HCT116 cells measured after 48 hrs by SRB assay; format: functional, cell-based; settings: hct-116
[3] = Anticancer activity against human NCI lung cancer cell by MTT assay; format: functional, cell-based; settings: Cancer cell lines
HepG2 [4] = experiment: Potency index, ratio of doxorubicin IC50 to compound IC50 for anticancer activity against human HepG2 cells after 48 hrs by SRB assay; format: functional
[5] = biological target: Epidermal growth factor receptor (Homo sapiens) (UniProt P00533); experiment: Inhibition of EGFR-tyrosine kinase (unknown origin) at 10 uM measured after 2 hrs by kinase-glo plus luminescence kinase assay
[6] = biological target: T1, Cathepsin H (Capra hircus) (UniProt A0A060INS8); experiment: Inhibition of goat cathepsin H at 10 uM in presence of Leu-beta-NA after 30 mins by colorimetric method
T1 sequence (whole entry): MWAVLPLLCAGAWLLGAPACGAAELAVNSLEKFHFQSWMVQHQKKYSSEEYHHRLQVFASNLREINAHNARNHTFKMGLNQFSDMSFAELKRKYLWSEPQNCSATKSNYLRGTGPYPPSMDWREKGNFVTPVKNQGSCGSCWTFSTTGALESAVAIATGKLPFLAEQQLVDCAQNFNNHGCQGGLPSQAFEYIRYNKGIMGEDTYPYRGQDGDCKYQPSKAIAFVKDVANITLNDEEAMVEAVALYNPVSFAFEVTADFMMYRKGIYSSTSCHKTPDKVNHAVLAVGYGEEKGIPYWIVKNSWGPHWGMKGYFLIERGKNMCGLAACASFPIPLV

[7] = biological target: T1, Cathepsin H (Capra hircus); experiment: Inhibition of goat cathepsin H at 750 uM in presence of Leu-beta-NA after 30 mins by colorimetric method
[8] = biological target: Epidermal growth factor receptor (Homo sapiens) (UniProt P00533); experiment: Inhibition of EGFR-TK receptor (unknown origin); settings: concentration not given here
Plasmodium berghei [9] = experiment: Antimalarial activity against chloroquine-sensitive Plasmodium berghei ANKA infected Swiss albino mouse assessed as suppression of parasitemia at 18.73 mg/kg administered for 4 consecutive days measured on 5th day by Giemsa staining based microscopic method; format: functional
Plasmodium berghei [10] = experiment: Antimalarial activity against chloroquine-sensitive Plasmodium berghei ANKA infected Swiss albino mouse assessed as parasitemia at 18.73 mg/kg administered for 4 consecutive days measured on 5th day by Giemsa staining based microscopic method; format: functional
Plasmodium berghei [11] = experiment: Antimalarial activity against chloroquine-sensitive Plasmodium berghei ANKA infected Swiss albino as mean survival time at 18.73 mg/kg administered for 4 consecutive days; format: functional
Cavia porcellus = species on record: Cavia porcellus; experiment: Antihistaminic activity in guinea pigs assessed as supression of histamine induced bronchospasm
Mus musculus = species on record: Mus musculus; experiment: Anticonvulsant activity in mouse assessed as reduction in MES-induced seizures by maximal electroshock seizure test; format: functional
[12] = Protective index, ratio of neurotoxicity in mouse to anticonvulasnt activity for MES-induced seizure mouse model; format: toxicity, organism-based; settings: in vivo, read-out: PI
HT-29 = experiment: Anticancer activity against human HT-29 cells measured after 72 hrs by MTT assay; format: functional, cell-based; settings: HT-29, 72 h
[13] = Anticancer activity against human HCT116 cells measured after 72 hrs by MTT assay; format: functional, cell-based; settings: HCT-116, 72 h
[14] = Cytotoxicity against human lymphocytes measured after 72 hrs by MTT assay; format: cell-based; settings: Lymphocyte
Thymidine phosphorylase = Thymidine phosphorylase (Escherichia coli K-12, UniProt P07650); experiment: Inhibition of recombinant Escherichia coli thymidine phosphorylase using thymidine as substrate measured after 10 mins at 30 degC by spectrophotometric method
[15] = biological target: Cathepsin B (Capra hircus) (UniProt H9B8T9); settings: 25 uM
Description: Inhibition of goat cathepsin B at 25 uM in presence of BANA after 30 mins by colorimetric method

[16] = biological target: Cathepsin B (Capra hircus) (UniProt H9B8T9); settings: 100 nM
Description: Inhibition of goat cathepsin B at 100 nM in presence of BANA after 30 mins by colorimetric method

Plasmodium berghei [17] = experiment: Antimalarial activity against chloroquine-sensitive Plasmodium berghei ANKA infected Swiss albino mouse assessed as suppression of parasitemia at 16.59 mg/kg administered for 4 consecutive days measured on 5th day by Giemsa staining based microscopic method; format: functional
Plasmodium berghei [18] = experiment: Antimalarial activity against chloroquine-sensitive Plasmodium berghei ANKA infected Swiss albino mouse assessed as mean survival time at 16.59 mg/kg administered for 4 consecutive days; format: functional

Epidermal growth factor receptor (Homo sapiens), sequence (P00533 whole entry): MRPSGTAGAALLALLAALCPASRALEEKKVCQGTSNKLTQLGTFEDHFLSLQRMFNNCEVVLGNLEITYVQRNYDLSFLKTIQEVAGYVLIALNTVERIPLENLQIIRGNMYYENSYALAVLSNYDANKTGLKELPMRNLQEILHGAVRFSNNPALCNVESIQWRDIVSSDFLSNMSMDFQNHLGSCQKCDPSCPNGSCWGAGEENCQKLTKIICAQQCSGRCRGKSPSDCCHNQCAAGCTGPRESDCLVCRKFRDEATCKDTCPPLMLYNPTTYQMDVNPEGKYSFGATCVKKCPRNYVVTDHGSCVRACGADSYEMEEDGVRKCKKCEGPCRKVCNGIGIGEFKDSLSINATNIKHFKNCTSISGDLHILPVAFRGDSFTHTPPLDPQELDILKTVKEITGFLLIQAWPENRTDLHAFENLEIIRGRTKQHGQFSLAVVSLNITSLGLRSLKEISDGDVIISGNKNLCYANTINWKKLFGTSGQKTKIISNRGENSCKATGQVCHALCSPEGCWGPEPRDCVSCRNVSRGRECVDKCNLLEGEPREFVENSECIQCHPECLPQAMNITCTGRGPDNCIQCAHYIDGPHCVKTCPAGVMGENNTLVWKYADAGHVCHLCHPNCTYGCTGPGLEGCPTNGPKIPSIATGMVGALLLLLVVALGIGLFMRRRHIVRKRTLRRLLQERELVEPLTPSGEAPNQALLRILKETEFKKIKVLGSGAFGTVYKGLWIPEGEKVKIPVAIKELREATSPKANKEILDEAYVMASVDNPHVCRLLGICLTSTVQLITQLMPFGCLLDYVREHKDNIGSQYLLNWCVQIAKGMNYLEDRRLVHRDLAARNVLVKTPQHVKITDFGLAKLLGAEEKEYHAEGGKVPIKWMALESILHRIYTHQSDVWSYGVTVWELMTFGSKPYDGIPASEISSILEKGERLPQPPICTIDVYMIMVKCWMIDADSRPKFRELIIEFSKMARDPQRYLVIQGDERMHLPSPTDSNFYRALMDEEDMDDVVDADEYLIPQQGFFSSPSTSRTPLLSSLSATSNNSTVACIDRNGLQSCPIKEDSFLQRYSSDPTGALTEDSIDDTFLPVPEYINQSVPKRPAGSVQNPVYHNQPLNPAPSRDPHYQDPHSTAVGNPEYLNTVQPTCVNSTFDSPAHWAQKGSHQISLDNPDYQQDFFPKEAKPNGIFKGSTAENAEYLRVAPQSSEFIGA
Thymidine phosphorylase, sequence (P07650 whole entry): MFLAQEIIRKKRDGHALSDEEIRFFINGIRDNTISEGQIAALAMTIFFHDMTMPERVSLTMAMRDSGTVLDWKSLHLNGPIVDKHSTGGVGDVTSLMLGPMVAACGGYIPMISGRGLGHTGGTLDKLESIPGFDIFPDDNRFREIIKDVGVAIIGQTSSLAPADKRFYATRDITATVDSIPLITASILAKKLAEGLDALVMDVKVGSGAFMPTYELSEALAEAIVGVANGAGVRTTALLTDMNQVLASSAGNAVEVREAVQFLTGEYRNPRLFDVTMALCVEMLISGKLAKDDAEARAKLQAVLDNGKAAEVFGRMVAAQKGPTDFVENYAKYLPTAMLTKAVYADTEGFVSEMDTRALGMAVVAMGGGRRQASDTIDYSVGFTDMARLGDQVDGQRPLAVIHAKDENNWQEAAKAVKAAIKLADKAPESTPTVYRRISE

SMILES: Cc1ccc(-c2cc(-c3ccc(-n4c(-c5ccco5)nc5ccccc5c4=O)cc3)[nH]c(=N)c2C#N)cc1
- IC50 (HepG2 [1]): 6.7 µM
- IC50 [2]: 1.2 µM

SMILES: Cc1cc(C)nc(NS(=O)(=O)c2ccc(-n3c(C)nc4ccc(F)cc4c3=O)cc2)n1
- IC50 [3]: 2.51 µM

- inhibition [5]: 95.6%
SMILES: N#CC1=C(N)OC(c2ccc(-n3c(-c4ccco4)nc4ccccc4c3=O)cc2)=CC1c1ccc(Cl)cc1 (configuration not stated)
- Ratio IC50 (HepG2 [4]): 24

- inhibition [6]: 100%
- inhibition [7]: 50%
SMILES: O=C1NC(c2ccc(F)cc2)Nc2ccccc21 (configuration not stated)

- inhibition [8]: 84%
SMILES: O=C(/C=C/c1ccccc1)c1ccc(-n2c(-c3ccco3)nc3ccccc3c2=O)cc1

SMILES: COc1cc(/C=C/c2nc3ccccc3c(=O)n2-c2ccccc2C)ccc1O
- inhibition in vivo at 18.73 mg/kg (Plasmodium berghei [9]): 72.9%
- Activity (Plasmodium berghei [10]): 17.71%
- MST (Plasmodium berghei [11]): 9.2 days

SMILES: CN(Cc1cnc2nc(N)nc(N)c2n1)c1ccc(C(=O)N[C@@H](CCC(=O)O)C(=O)O)cc1 [METHOTREXATE]
- IC50 [3]: 2.4 µM

SMILES: CN(C)CCC(c1ccc(Cl)cc1)c1ccccn1.O=C(O)/C=C\C(=O)O (configuration not stated) [CHLORPHENIRAMINE MALEATE]
- inhibition (INH) (Cavia porcellus): 70.09%

SMILES: O=c1c2ccccc2nc(-n2cncn2)n1-c1ccc(Cl)cc1
- ED50 (Mus musculus): 88 mg/kg
- selectivity ratio [12]: > 25.5

- IC50 (HT-29): 50.9 µM
SMILES: O=c1c2cc(N3CCN(c4ccccc4F)CC3)ccc2ncn1Cc1ccccc1
- IC50 [13]: 46 µM
- IC50 [14]: 197 µM

SMILES: COc1ccc(-c2cc(-c3ccc(-n4c(-c5ccco5)nc5ccccc5c4=O)cc3)[nH]c(=N)c2C#N)cc1
- IC50 (HepG2 [1]): 6.6 µM
- IC50 [2]: 0.2 µM
- Ratio IC50 (HepG2 [4]): 4

SMILES: COc1cccc2c1C(=O)c1c(O)c3c(c(O)c1C2=O)C[C@@](O)(C(=O)CO)C[C@@H]3O[C@H]1C[C@H](N)[C@H](O)[C@H](C)O1 [DOXORUBICIN]
- IC50 (HepG2 [1]): 5.7 µM
- IC50 [2]: 4.8 µM

SMILES: O=c1c2ccccc2nc(-n2cncn2)n1-c1cccc(Br)c1
- ED50 (Mus musculus): 94.6 mg/kg
- selectivity ratio [12]: > 26

- IC50 (Thymidine phosphorylase): 42.9 µM
SMILES: O=c1[nH]c(-c2ccc(O)c(O)c2)nc2ccccc12

- inhibition [15]: 100%
- inhibition [16]: 50%
SMILES: Cc1ccc(C2NC(=O)c3ccccc3N2)cc1 (configuration not stated)

- IC50 (Thymidine phosphorylase): 59.5 µM
SMILES: O=c1[nH]c(-c2cc(O)ccc2O)nc2ccccc12

SMILES: Cc1nnc2n(-c3cccc(Cl)c3)c(=O)c3ccccc3n12
- inhibition (INH) (Cavia porcellus): 69.65%

SMILES: O=c1c2ccccc2nc(/C=C/c2ccc(O)cc2)n1-c1ccccc1
- inhibition in vivo at 16.59 mg/kg (Plasmodium berghei [17]): 67.6%
- MST (Plasmodium berghei [18]): 8.3 days
